Laboratory results reported in ChEMBL document CHEMBL1201862, “PubChem BioAssay data set” (2004).
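Assay format: 96-well plates, 48-hour exposure. GI50 = concentration required for 50% inhibition of growth.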 The source made the active and inactive calls. Rule as the data show it: active = GI50 up to about 1.1 µM and inactive = higher.

Key:
Assay in all cases: NCI tumour cell line growth inhibition, 48 h
786-0 = tested on: 786-0
ACHN = tested on: ACHN
HOP-62 = tested on: HOP-62
HOP-92 = tested on: HOP-92
HT-29 = tested on: HT-29
LOX IMVI = tested on: LOX IMVI
NCI-H522 = tested on: NCI-H522
OVCAR-3 = tested on: OVCAR-3
OVCAR-5 = tested on: OVCAR-5
OVCAR-8 = tested on: OVCAR-8
SF-268 = tested on: SF-268
SK-MEL-28 = tested on: SK-MEL-28
SK-MEL-2 = tested on: SK-MEL-2
SN12C = tested on: SN12C
SNB-19 = tested on: SNB-19
SW-620 = tested on: SW-620

Measured: GI50

CCOC(=O)CC1=CSC2=NCCN12
inactive: 786-0 > 100 µM | ACHN > 100 µM | HOP-62 > 100 µM | HOP-92 > 100 µM | HT-29 > 100 µM | LOX IMVI > 100 µM | NCI-H522 > 100 µM | OVCAR-3 > 100 µM | OVCAR-5 > 100 µM | OVCAR-8 > 100 µM | SF-268 > 100 µM | SK-MEL-28 > 100 µM | SK-MEL-2 > 100 µM | SN12C > 100 µM | SNB-19 > 100 µM | SW-620 > 100 µM

CC(C)=CCc1c(O)cc(O)c2c1OC(c1ccc(O)cc1)C(O)C2=O (stereo not given)
inactive: ACHN 25.5 µM | HOP-62 19.3 µM | HOP-92 18.3 µM | HT-29 20.9 µM | LOX IMVI 18.7 µM | NCI-H522 18.9 µM | OVCAR-3 19.2 µM | OVCAR-5 28.2 µM | OVCAR-8 31.8 µM | SF-268 32.1 µM | SK-MEL-28 23.3 µM | SK-MEL-2 23.6 µM | SN12C 27.7 µM | SNB-19 37.2 µM | SW-620 36.4 µM

CCOC(=O)C1(C#N)C(c2ccccc2)CC(O)(c2ccc([N+](=O)[O-])cc2)C(C(=O)c2ccc([N+](=O)[O-])cc2)C1c1ccccc1 (stereo not given)
inactive: 786-0 > 100 µM | ACHN > 100 µM | HOP-62 > 100 µM | HT-29 > 100 µM | LOX IMVI > 100 µM | NCI-H522 34 µM | OVCAR-3 > 100 µM | OVCAR-5 > 100 µM | OVCAR-8 > 100 µM | SF-268 > 100 µM | SK-MEL-28 > 100 µM | SK-MEL-2 > 100 µM | SN12C > 100 µM | SNB-19 32.2 µM | SW-620 > 100 µM

C/C(CC(=O)Nc1ccc(Cl)cc1)=N\NC(=O)C[n+]1ccccc1
inactive: 786-0 > 100 µM | ACHN > 100 µM | HOP-62 > 100 µM | HOP-92 > 100 µM | HT-29 > 100 µM | LOX IMVI > 100 µM | NCI-H522 75 µM | OVCAR-3 > 100 µM | OVCAR-5 > 100 µM | OVCAR-8 > 100 µM | SF-268 > 100 µM | SK-MEL-28 > 100 µM | SK-MEL-2 > 100 µM | SW-620 > 100 µM

O=C1c2ccccc2C(=O)N1Cc1ccccc1-c1c2nc(c(-c3ccccc3CN3C(=O)c4ccccc4C3=O)c3ccc([nH]3)c(-c3ccccc3CN3C(=O)c4ccccc4C3=O)c3nc(c(-c4ccccc4CN4C(=O)c5ccccc5C4=O)c4ccc1[nH]4)C=C3)C=C2
inactive: 786-0 > 100 µM | ACHN > 100 µM | HOP-62 > 100 µM | HOP-92 > 100 µM | HT-29 > 100 µM | LOX IMVI > 100 µM | NCI-H522 > 100 µM | OVCAR-3 > 100 µM | OVCAR-5 > 100 µM | OVCAR-8 > 100 µM | SF-268 > 100 µM | SK-MEL-28 > 100 µM | SK-MEL-2 > 100 µM | SN12C > 100 µM | SW-620 > 100 µM

CCOc1cccc2sc(N)nc12
inactive: 786-0 > 100 µM | ACHN > 100 µM | HOP-62 > 100 µM | HOP-92 > 100 µM | HT-29 > 100 µM | LOX IMVI > 100 µM | NCI-H522 > 100 µM | OVCAR-3 > 100 µM | OVCAR-5 > 100 µM | OVCAR-8 > 100 µM | SF-268 > 100 µM | SK-MEL-28 > 100 µM | SK-MEL-2 > 100 µM | SN12C > 100 µM | SNB-19 > 100 µM | SW-620 > 100 µM

COc1cc(NC(C)=O)c2[nH]c3c(C)cc(NC(C)=O)c(C)c3c2c1
inactive: 786-0 > 100 µM | ACHN > 100 µM | HOP-92 > 100 µM | HT-29 > 100 µM | NCI-H522 > 100 µM | OVCAR-3 > 100 µM | OVCAR-8 > 100 µM | SF-268 > 100 µM | SK-MEL-28 > 100 µM | SK-MEL-2 > 100 µM | SN12C > 100 µM | SNB-19 > 100 µM | SW-620 > 100 µM

COc1cc(C(=O)C/C(CCC(=O)Nc2ccc(Cl)cc2Cl)=N/NC(=O)C(N)=O)ccc1O
inactive: 786-0 > 100 µM | ACHN > 100 µM | HOP-62 79.6 µM | HOP-92 > 100 µM | HT-29 > 100 µM | NCI-H522 > 100 µM | OVCAR-3 > 100 µM | OVCAR-5 > 100 µM | OVCAR-8 > 100 µM | SF-268 > 100 µM | SK-MEL-28 > 100 µM | SK-MEL-2 > 100 µM | SN12C > 100 µM | SNB-19 > 100 µM | SW-620 > 100 µM

CC(=O)CCC#Cc1ccccc1C(=O)C(C)=[N+]=[N-]
inactive: ACHN 39.5 µM | HOP-62 71.3 µM | HOP-92 38 µM | HT-29 44.8 µM | LOX IMVI 32.2 µM | OVCAR-3 28.5 µM | OVCAR-5 > 100 µM | OVCAR-8 42.8 µM | SF-268 18.1 µM | SK-MEL-28 18.2 µM | SK-MEL-2 72.3 µM | SN12C 49.1 µM | SNB-19 > 100 µM | SW-620 52.7 µM

COc1cc(OC)c(C(=O)c2cccs2)cc1N
inactive: 786-0 > 100 µM | ACHN > 100 µM | HOP-62 > 100 µM | HT-29 > 100 µM | LOX IMVI > 100 µM | OVCAR-3 > 100 µM | OVCAR-5 > 100 µM | OVCAR-8 > 100 µM | SF-268 > 100 µM | SK-MEL-28 > 100 µM | SK-MEL-2 > 100 µM | SN12C > 100 µM | SNB-19 > 100 µM | SW-620 > 100 µM

Cc1c(C)c2cc3c(=O)c(CCl)coc3c(C)c2oc1=O
inactive: 786-0 60.5 µM | ACHN > 100 µM | HOP-62 > 100 µM | LOX IMVI > 100 µM | NCI-H522 95.3 µM | OVCAR-3 > 100 µM | OVCAR-5 > 100 µM | OVCAR-8 > 100 µM | SF-268 > 100 µM | SK-MEL-28 > 100 µM | SK-MEL-2 > 100 µM | SN12C > 100 µM | SNB-19 > 100 µM | SW-620 > 100 µM

CC(C)c1cccc(C(C)C)c1NC(=S)Nc1ccccc1
inactive: ACHN > 100 µM | HOP-62 > 100 µM | HOP-92 > 100 µM | HT-29 > 100 µM | LOX IMVI 79.4 µM | OVCAR-3 > 100 µM | OVCAR-5 > 100 µM | OVCAR-8 > 100 µM | SF-268 > 100 µM | SK-MEL-28 > 100 µM | SK-MEL-2 > 100 µM | SN12C > 100 µM | SNB-19 > 100 µM | SW-620 > 100 µM

Cc1ccccc1NC(=O)C(=O)CC(=O)c1ccc([N+](=O)[O-])cc1
inactive: 786-0 > 100 µM | ACHN > 100 µM | HOP-62 > 100 µM | HOP-92 > 100 µM | HT-29 > 100 µM | LOX IMVI > 100 µM | OVCAR-3 > 100 µM | OVCAR-5 > 100 µM | OVCAR-8 > 100 µM | SF-268 > 100 µM | SK-MEL-28 > 100 µM | SK-MEL-2 > 100 µM | SN12C > 100 µM | SNB-19 > 100 µM | SW-620 > 100 µM
